Experimental data reported in patent US5973229A, “Gene encoding herbicide safener binding protein” (Board of Trustees Operating Michigan State University, priority 1997, dated 1999).

Assays:
[1] = test system: safener binding activity (SafBA) / SafBP; settings: cited from earlier work; for IC50: maize SafBA, from Walton and Casida 1995, read-out: IC50 (inhibitor concentration that reduces specific [3H]Saf binding by 50%)
[2] = target: T1, SafBP (SBP1 expressed in E. coli) (Zea mays, UniProt O49010); assay: [3H]Saf binding in extracts of E. coli expressing SBP1; set-up: species or system maize (Zea mays L.); settings: for Total [3H]Saf binding: E. coli/SBP1 2-hr extract, 20.9 μg protein, [3H]R-29148 alone 67.3, average of duplicates
T1 construct: possible vector-derived N-terminal residues
T1 sequence (O49010 1-363): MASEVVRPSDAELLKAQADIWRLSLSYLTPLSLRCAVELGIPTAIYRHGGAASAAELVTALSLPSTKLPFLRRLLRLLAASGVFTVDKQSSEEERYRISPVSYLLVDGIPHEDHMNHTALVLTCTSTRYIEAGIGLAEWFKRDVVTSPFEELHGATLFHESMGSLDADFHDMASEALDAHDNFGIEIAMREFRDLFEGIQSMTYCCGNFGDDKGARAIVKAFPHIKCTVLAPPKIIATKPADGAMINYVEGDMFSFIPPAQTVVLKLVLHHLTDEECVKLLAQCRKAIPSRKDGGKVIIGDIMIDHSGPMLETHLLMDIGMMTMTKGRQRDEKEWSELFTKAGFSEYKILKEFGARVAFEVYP
Procedure: Binding Assay. Racemic R-29148 (Saf) and [^3 H]Saf (specific activity 15 Ci/mmol) were prepared according to Latli, B. et al., J. Labelled Cmpd Radiopharmn. 36:147-155 (1995). The sources of other chemicals are given in Walton, J. D. and Casida, J. E., Plant Physiol. 109:213-219 (1995). [^3 H]Saf binding was measured by incubating extracts with ca. 400,000 cpm of [^3 H]Saf in 50 mM Tris-HCl, pH 8, in a total volume of 1 mL for 60 min at 22° C. The extracts were then filtered through GF/A (Whatman) glass fiber filters that had been soaked in 0.3% polyethylenimine, the filters rinsed with water, and radioactivity retained on the filters measured by scintillation counting. Walton, J. D. and Casida, J. E., Plant Physiol. 109:213-219 (1995).
Expression of SafBP in E. coli. Vector pZL1 (Gibco-BRL) containing the SafBP cDNA clone was digested with EcoRI and NotI, the 1.5-kb insert cloned into the corresponding sites in the E. coli expression vector pET21c (Novagen, Madison, Wis.), and the resulting construct transformed into E. coli strain BL21(DE3) (Novagen). A 50-mL culture of this strain was grown at 37° C. to an OD600 of 0.5 at which point expression of the cDNA was induced with 1 mM isopropylthiogalactoside (IPTG). As a control, E. coli BL21(DE3) transformed with pET21c with no insert was grown in parallel. Samples (each 12.5 mL) were removed at 0, 1, 2, and 3 hr after induction, centrifuged, and extracted by the freeze-thaw method according to Novagen, and centrifuged again to remove cell debris. Each sample was in a final volume of 5 mL of 50 mM Tris-HCl, pH 8; 50 μL of this was used in the [^3 H]Saf binding assay according to Walton and Casida. Walton, J. D. and Casida, J. E., Plant Physiol. 109:213-219 (1995).
SBP1 was expressed in E. coil behind an IPTG-inducible promoter. Extracts of E. coil expressing SBP1 have strong SafBA whereas cells transformed with the empty expression vector have no binding (Table II). […] After growing to an OD600 of 0.5, cells were induced with IPTG and aliquots harvested at the indicated times after induction, lysed, and centrifuged to remove cell debris. Final volume of each extract was 5 mL. Control cells were transformed with the vector without insert. Values are the average of duplicates. Like [^3 H]Saf binding to the native maize protein, [^3 H]Saf binding in E. coli extracts is inhibited by dichlormid, EPTC, metolachlor, acetochlor, and alachlor (Table III). Table III provides inhibition of [^3 H]Saf binding by safeners and herbicides in extracts of E. coli expressing SBP1. The E.coli/SBP1 2-hr time point from […] was used; protein content per sample was 20.9 μg. Values are the average of duplicates.

[3] = competitor Concentration 1.1 (unit not given)

SMILES | SafBP binds herbicide [1] | IC50 [1] | Inhibition of R-29148 binding in extracts of E. coli cells expressing SBP1 [2] | Total [3H]Saf binding [2, 3] | also measured
CCCN(CCC)C(=O)SCC [EPTC, S-ethyl dipropylthiocarbamate] | binds | 110 nM | competitively inhibited |  | Total [3H]Saf binding ([2]; competitor Concentration 1.6 (unit not given)): 1.7
CCc1cccc(C)c1N(C(=O)CCl)C(C)COC (centres unmarked) [metolachlor] | binds | 40 nM | competitively inhibited | 3.3 | 
CCc1cccc(CC)c1N(COC)C(=O)CCl [alachlor] | binds | 70 nM | competitively inhibited | 1.7 | 
CCSC(=O)N(CC)C1CCCCC1 [cycloate] | binds |  |  |  | 
C=CCN(CC=C)C(=O)C(Cl)Cl [dichlormid] |  | 10 nM | competitively inhibited |  | Total [3H]Saf binding ([2]; competitor Concentration 1.4 (unit not given)): 0.7
CCSC(=O)N(CC(C)C)CC(C)C [butylate] | binds |  |  |  | 
CCOCN(C(=O)CCl)c1c(C)cccc1CC [acetochlor] | binds | 180 nM | inhibited | 21.6 | 
CC1CN(C(=O)C(Cl)Cl)C(C)(C)O1 (racemic) [R-29148, (R,S)-3-dichloroacetyl-2,2,5-trimethyloxazolidine] |  | 120 nM |  |  | Kd ([1]; soluble, high affinity binding activity in extracts of etiolated maize seedlings, read-out: Kd of safener binding activity (SafBA) for [3H]Saf): 120 nM; Total [3H]Saf binding ([2]; competitor Concentration 2.5 (unit not given)): 3.0
CC(C)N(C(=O)CCl)c1ccccc1 [propachlor] | binds |  |  |  | 
CC(C)N(C(=O)SCC(Cl)=C(Cl)Cl)C(C)C [triallate] | binds |  |  |  | 
